Some test systems named below: A498 renal; NCI/ADR-RES ovarian; MDA-N; SK-MEL-5 melanoma; KM12 colon; DU-145 prostate; COLO 205 colon; MDA-MB-435; HT29 colon; NCI-H522 lung.
Experiment in all cases: NCI tumour cell line growth inhibition, 48 h

The text below walks through data of PubChem BioAssay (NCI).

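Test compounds were applied to cells in 96-well plates for 48 hours at 5 doses. The concentration for full growth arrest is given as TGI.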

As for `CC1(C)CCC[C@@]2(C)C1CC[C@@]1(CO)O[C@H](C3=CC(=O)OC3O)C[C@H]12` (stereo not given in full), the TGI in the assay with A498 renal was 30.1 µM; with NCI/ADR-RES ovarian, 36.7 µM; in the assay with MDA-N it was 25.8 µM; in the assay with SK-MEL-5 melanoma, 20.9 µM; with KM12 colon, 36.3 µM; with DU-145 prostate it was 17.8 µM. For the same compound, the TGI is 23.2 µM with COLO 205 colon, 24.6 µM in the assay on MDA-MB-435, 30.6 µM with HT29 colon and 17.4 µM with NCI-H522 lung.

Take `O=C(N/N=C/c1ccccc1)c1c(F)c(F)c(F)c(F)c1F`: the TGI in the assay on A498 renal, with NCI/ADR-RES ovarian, in the assay on MDA-N, in the assay with SK-MEL-5 melanoma, in the assay with KM12 colon and in the assay with DU-145 prostate was greater than 100 µM each time. Further, the TGI in the assay with COLO 205 colon is greater than 100 µM; with MDA-MB-435, greater than 100 µM; in the assay on HT29 colon, greater than 100 µM; in the assay with NCI-H522 lung, 49.2 µM.

Turning to `Nc1c(C(=O)O)c2ccc([N+](=O)[O-])cc2c(=O)n1-c1nc2ccccc2s1`, the TGI with A498 renal, in the assay on NCI/ADR-RES ovarian, in the assay with MDA-N, in the assay on SK-MEL-5 melanoma, in the assay with KM12 colon and in the assay with DU-145 prostate was greater than 100 µM throughout. Further, the TGI in the assay on COLO 205 colon, in the assay with MDA-MB-435, in the assay with HT29 colon and in the assay on NCI-H522 lung was greater than 100 µM throughout.
